Source: patent publication US7364842B2, “Methods of identifying modulators of human retrovirus replication” (IRM, LLC, priority 2003, dated 2008)

How the values were obtained:
[1] = system: Moloney murine leukemia virus (MLV); settings: background statement; cited from earlier work
[2] = system: human immunodeficiency virus (HIV); settings: Chao et al., J. Biol. Chem. 2000; cited from earlier work
[3] = system: HIV-1; settings: siRNA-transfected Magi cells; versus Scramble siRNA control
Protocol: Magi cells were transiently transfected with an siRNA targeting Pbx1 or Pin1. A Scramble siRNA was used as a negative control. Reverse transcriptase activity was then assessed.
Magi indicator cells were also used to determine the effect of HMG I proteins on the transcription of retroviral genes. Magi cells were transiently transfected with an siRNA targeting HMG I-C or HMG I/Y. A Scramble siRNA was used as a negative control. […] For the western blot analysis, cells were transiently transfected with the siRNAs targeting HMGI/Y (FIG. 9), HMG I-C (FIG. 10) or firefly luciferase (control siRNA). Magi cells were lysed 48-60 hours after transfection and analyzed by western blot using antibodies against HMGI/Y, HMG I-C or γ-tubulin proteins. The γ-tubulin levels were used as the loading controls.

[4] = system: HMG I-C protein; experiment: Western blot of HMG I-C protein in siRNA-treated Magi cells; type: cell-based; settings: Magi cells lysed 48-60 hours after transfection; versus luciferase siRNA control
[5] = system: HIV-1 LTR-driven β-gal reporter in Magi cells; experiment: Magi indicator cell β-galactosidase assay (HIV LTR-mediated gene expression); type: cell-based; settings: Magi cells transiently transfected with siRNA; versus Scramble siRNA control
From the text: (§1) The ability of Pbx 1 to mediate transcription of genes of retroviruses that infect human cells was investigated using Magi indicator cells (e.g., Kimpton and Emerman, J. Virol. 66: 2232-2239, 1992). The MAGI (Multinuclear Activation of a Galactosidase Indicator) cell line was derived from parental HeLa cells by introducing genes for CD4 and an HIV-1 LTR-driven β-gal reporter with an amphotropic retrovirus vector. This cell line exploits the ability of HIV-1 tat to transactivate the expression of a β-galactosidase reporter gene driven by the HIV-LTR. […] The β-galactosidase activity was then assessed in the cultures. […] Western blot analysis of Pbx1 siRNA-transfected Magi cells confirmed that levels of Pbx1 protein were reduced in comparison to control cells transfected with firefly luciferase siRNA, which served as a negative control (FIG. 2). […] The γ-tubulin was used as the loading control.

[6] = system: recombinant HIV; experiment: Recombinant HIV assay, luciferase reporter in 293T cells; type: cell-based, HIV-1; settings: 293T cells transfected with siRNA, infected with recombinant HIV after 24 hours, measured after 48 hrs; versus Scramble siRNA
Protocol: A recombinant HIV assay was used to assess the role of HMG I proteins in HIV replication. Pseudotyped recombinant HIV particles were generated by transient transfection of 293T cells using a three-plasmid expression system (FIGS. 5a and 5b).
A Scramble siRNA was used as a negative control After 24 hours, the transfected cells were infected with recombinant HIV. After 48 hrs, luciferase activity was measured.

[7] = system: Pbx1 protein; experiment: Western blot of Pbx1 protein in siRNA-transfected Magi cells; type: cell-based; settings: Magi cells lysed 48-60 hours after transfection; versus firefly luciferase siRNA control
From the text: as §1

[8] = system: HMG I/Y protein; experiment: Western blot of HMG I/Y protein in siRNA-treated Magi cells; type: cell-based; settings: Magi cells lysed 48-60 hours after transfection; versus luciferase siRNA control

Compound: CN1CC[C@H](c2c(O)cc(O)c3c(=O)cc(-c4ccccc4Cl)oc23)[C@H](O)C1 [flavopiridol]
- MLV transcription events [1]: block
- anti-HIV activity [2]: very potent

Compound: CC(C)[C@H](CO)Nc1nc(Nc2cccc(Cl)c2)c2ncn(C(C)C)c2n1 [purvalanol A]
- MLV transcription events [1]: block

Compound: AAGCAGCUCAAAAGAAAGCAG (chemistry not given here) [HMG I-C]
- activity of HIV reverse transcriptase [3]: reduced
- levels of HMG I-C protein [4]: reduced
- β-gal activity [5]: inhibited
- luciferase reporter activity [6]: reduced

Compound: AAGCCUGCCUUGUUUAAUGUG (chemistry not given here) [Pbx1 siRNA]
- levels of Pbx1 protein [7]: reduced
- activity of HIV reverse transcriptase [3]: greatly reduced
- β-gal activity [5]: reduced

Compound: AAGUGCCAACACCUAAGAGAC (chemistry not given here) [HMG I/Y]
- activity of HIV reverse transcriptase [3]: reduced
- β-gal activity [5]: inhibited
- levels of HMG I/Y protein [8]: reduced

Compound: methoxy-roscovitine
- MLV transcription events [1]: block
